The text below walks through data of US20240401154A1, “SYNTHESIS AND PREPARATION OF ULTRA-LOW VISCOSITY AND HIGH MAGNETIC SUSCEPTIBILITY MAGNETIC IONIC LIQUIDS” (priority 2023, published 2024).

The conditions of data set [1]: previously studied MILs, Table 2, cited from earlier work.
The conditions of data set [2]: SQUID magnetometer; previously studied MILs, Table 2; cited from earlier work.
The conditions of data set [3]: previously referenced MILs, cited from earlier work.
The conditions of data set [4]: GC-FID; previously referenced MILs; cited from earlier work.
Data set [5] is described as follows: Viscosity, Brookfield DVI cone and plate viscometer. The data set is classed as physicochemical. To be noted: 21.7° C.; neat MIL dried 48 hours under vacuum. In a few lines:
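Cone and plate viscometer with CPA-51Z spindle, about 0.5 g of each MIL after 48 h vacuum drying. Measured at 21.6–21.7 °C.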

Data set [6] can be described thus: Effective magnetic moment from magnetic susceptibility balance (MSB). The data set is classed as physicochemical. To be noted: per formula unit. The method, boiled down: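 Magnetic susceptibility (XM) measured on a magnetic susceptibility balance for 15 rare-earth and transition-metal MILs. μeff derived from XM and the measurement temperature T. Transition-metal MILs also checked by SQUID magnetometry for paramagnetism and any magnetic transition.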

The nature of data set [7]: Solubility of MILs in organic solvents and water. Type of data set: physicochemical. The source says: The solubility of lanthanide and transition metal MILs was investigated in popular traditional organic solvents. […]
The solubility of lanthanide and transition metal MILs was investigated in popular traditional organic solvents.

Data set [8] is described as follows: Thermal stability, MIL as GC stationary phase with FID. The data set is classed as physicochemical. To be noted: exponential increase in response beyond 2,000 pA. In a few lines:
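TGA run from 40 to 350 °C at 5 °C min^−1. For a more sensitive check, MILs served as GC stationary phase under an oven program of 40 to 200 °C at 1 °C min^−1, with decomposition/degradation products detected by FID.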

The nature of data set [9]: Thermal stability by thermogravimetric analysis (TGA). Type of data set: physicochemical. To be noted: TGA at 10% weight loss. The method, boiled down:
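Mass loss measured by TGA from 40 to 350 °C at 5 °C min^−1. Degradation also checked with the MILs used as GC stationary phase, oven 40 to 200 °C at 1 °C min^−1, with FID detection of decomposition products.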

The mark [10] stands for this setting: acetone, chloroform, dichloromethane, acetonitrile, methanol, ethanol, diethyl ether, ethyl acetate, isopropanol at 20% (w/v).
Where [11] appears, read: hexane, heptane, benzene, toluene at 10% (w/v).
[12] abbreviates: hexane, heptane, benzene, toluene at 20% (w/v).

Where two headings read alike, the source gives them in different places. Marks after values point to notes of the source that are not given here.

As for `CCCCCCCCCCCCCC[P+](CCCCCC)(CCCCCC)CCCCCC.CCCCCCCCCCCCCC[P+](CCCCCC)(CCCCCC)CCCCCC.[Cl-].[Cl-].[Cl-].[Cl-].[Mn+2]` [[P66614]2[MnCl4]], the Viscosity in data set [1] (reported at 20.0° C.) was 112,300^d. Besides, the Effective magnetic moment in data set [2] is 5.81^f.
In the case of `CCCCCCCCN(CCCCCCCC)C(=O)COCC(=O)N(CCCCCCCC)CCCCCCCC.CCCCCCCCN(CCCCCCCC)C(=O)COCC(=O)N(CCCCCCCC)CCCCCCCC.O=C(C=C([O-])C(F)(F)F)C(F)(F)F.O=C(C=C([O-])C(F)(F)F)C(F)(F)F.O=C(C=C([O-])C(F)(F)F)C(F)(F)F.O=C(C=C([O-])C(F)(F)F)C(F)(F)F.O=C(C=C([O-])C(F)(F)F)C(F)(F)F.O=C(C=C([O-])C(F)(F)F)C(F)(F)F.[Ni+2].[Ni+2].[Ni+2]` [[Ni(TODGA)2][Ni(hfacac)3]2], the Viscosity in [1] (reported at 19.9° C.) is listed as 33,830^e. Moreover, the Effective magnetic moment in data set [2] is given as 11.79^f. Moreover, the Solubility entry was “S^b (soluble in acetone, chloroform, dichloromethane, acetonitrile, methanol, ethanol, diethyl ether, ethyl acetate, and isopropanol at 20% (w/v).)” in data set [3] (setting [10]); “S^a (soluble in hexane, heptane, benzene, and toluene at 10% (w/v).)” in [3] (setting [11]); “S^f (insoluble in water at 0.01% (w/v).)” in [3] (water at 0.01% (w/v)). The “Onset of MIL volatilization (° C.)^1” value in data set [4] was 235 °C.
For the compound `CCCCCCCCN(CCCCCCCC)C(=O)COCC(=O)N(CCCCCCCC)CCCCCCCC.CCCCCCCCN(CCCCCCCC)C(=O)COCC(=O)N(CCCCCCCC)CCCCCCCC.CCCCCCCCN(CCCCCCCC)C(=O)COCC(=O)N(CCCCCCCC)CCCCCCCC.O=C(C=C([O-])C(F)(F)F)C(F)(F)F.O=C(C=C([O-])C(F)(F)F)C(F)(F)F.O=C(C=C([O-])C(F)(F)F)C(F)(F)F.O=C(C=C([O-])C(F)(F)F)C(F)(F)F.O=C(C=C([O-])C(F)(F)F)C(F)(F)F.O=C(C=C([O-])C(F)(F)F)C(F)(F)F.O=C(C=C([O-])C(F)(F)F)C(F)(F)F.O=C(C=C([O-])C(F)(F)F)C(F)(F)F.O=C(C=C([O-])C(F)(F)F)C(F)(F)F.O=C(C=C([O-])C(F)(F)F)C(F)(F)F.O=C(C=C([O-])C(F)(F)F)C(F)(F)F.O=C(C=C([O-])C(F)(F)F)C(F)(F)F.[Gd+3].[Gd+3].[Gd+3].[Gd+3]` [[Gd(TODGA)3][Gd(hfacac)4]3], the Viscosity in [1] (reported at 19.9° C.) is given as 13,640^e. Further, the Effective magnetic moment in data set [2] is 14.90^f. Besides, the Solubility entry in [3] (setting [10]) is “S^b (soluble in acetone, chloroform, dichloromethane, acetonitrile, methanol, ethanol, diethyl ether, ethyl acetate, and isopropanol at 20% (w/v).)”; in data set [3] (setting [11]), “S^a (soluble in hexane, heptane, benzene, and toluene at 10% (w/v).)”; in data set [3] (setting [12]) it was “S^c (soluble in hexane, heptane, benzene, and toluene at 20% (w/v).)”; in [3] (water at 0.01% (w/v)) it was “S^f (insoluble in water at 0.01% (w/v).)”. Moreover, in data set [4], the “Onset of MIL volatilization (° C.)^1” value is 183 °C.
With `CCCCCCCCCCCCCC[P+](CCCCCC)(CCCCCC)CCCCCC.CCCCCCCCCCCCCC[P+](CCCCCC)(CCCCCC)CCCCCC.[Cl-].[Cl-].[Cl-].[Cl-].[Co+2]` [[P66614]2[CoCl4]], the Viscosity in data set [1] (reported at 20.0° C.) was 123,500^d. Besides, the Effective magnetic moment in data set [2] is listed as 4.45^f.
On to `CCCCCCCCCCCCCC[P+](CCCCCC)(CCCCCC)CCCCCC.O=C(C=C([O-])C(F)(F)F)C(F)(F)F.O=C(C=C([O-])C(F)(F)F)C(F)(F)F.O=C(C=C([O-])C(F)(F)F)C(F)(F)F.[Co+2]` [[P66614][Co(hfacac)3]], for which the Viscosity in data set [1] (reported at 23.7° C.) is listed as 575.8^c. For the same compound, the Effective magnetic moment in [2] is reported as 4.30^f. For the same compound, the Solubility entry in data set [3] (setting [10]) is “S^b (soluble in acetone, chloroform, dichloromethane, acetonitrile, methanol, ethanol, diethyl ether, ethyl acetate, and isopropanol at 20% (w/v).)”; in data set [3] (setting [11]), “S^a (soluble in hexane, heptane, benzene, and toluene at 10% (w/v).)”; in data set [3] (water at 0.01% (w/v)), “S^f (insoluble in water at 0.01% (w/v).)”. Moreover, in [4], the “Onset of MIL volatilization (° C.)^1” value is 130 °C.
Consider `CCCCCCCCCCCCCC[P+](CCCCCC)(CCCCCC)CCCCCC.O=C(C=C([O-])C(F)(F)F)C(F)(F)F.O=C(C=C([O-])C(F)(F)F)C(F)(F)F.O=C(C=C([O-])C(F)(F)F)C(F)(F)F.[Ni+2]` [[P66614][Ni(hfacac)3]], for which, in data set [1] (reported at 23.7° C.), the Viscosity is 927.9^c. The Effective magnetic moment in data set [2] was 2.80^f. Further, the Solubility result is “S^b (soluble in acetone, chloroform, dichloromethane, acetonitrile, methanol, ethanol, diethyl ether, ethyl acetate, and isopropanol at 20% (w/v).)” in [3] (setting [10]); “S^a (soluble in hexane, heptane, benzene, and toluene at 10% (w/v).)” in data set [3] (setting [11]); “S^f (insoluble in water at 0.01% (w/v).)” in data set [3] (water at 0.01% (w/v)). For the same compound, the “Onset of MIL volatilization (° C.)^1” value in data set [4] was 225 °C.
Take `CCCCCCCCN(CCCCCCCC)C(=O)COCC(=O)N(CCCCCCCC)CCCCCCCC.CCCCCCCCN(CCCCCCCC)C(=O)COCC(=O)N(CCCCCCCC)CCCCCCCC.CCCCCCCCN(CCCCCCCC)C(=O)COCC(=O)N(CCCCCCCC)CCCCCCCC.O=C(C=C([O-])C(F)(F)F)C(F)(F)F.O=C(C=C([O-])C(F)(F)F)C(F)(F)F.O=C(C=C([O-])C(F)(F)F)C(F)(F)F.O=C(C=C([O-])C(F)(F)F)C(F)(F)F.O=C(C=C([O-])C(F)(F)F)C(F)(F)F.O=C(C=C([O-])C(F)(F)F)C(F)(F)F.O=C(C=C([O-])C(F)(F)F)C(F)(F)F.O=C(C=C([O-])C(F)(F)F)C(F)(F)F.O=C(C=C([O-])C(F)(F)F)C(F)(F)F.O=C(C=C([O-])C(F)(F)F)C(F)(F)F.O=C(C=C([O-])C(F)(F)F)C(F)(F)F.O=C(C=C([O-])C(F)(F)F)C(F)(F)F.[Ho+3].[Ho+3].[Ho+3].[Ho+3]` [[Ho(TODGA)3][Ho(hfacac)4]3]: in data set [1] (reported at 19.9° C.), the Viscosity was 10,530^e. For the same compound, the Effective magnetic moment in data set [2] is listed as 20.86^f. Also, the Solubility entry is “S^b (soluble in acetone, chloroform, dichloromethane, acetonitrile, methanol, ethanol, diethyl ether, ethyl acetate, and isopropanol at 20% (w/v).)” in data set [3] (setting [10]); “S^a (soluble in hexane, heptane, benzene, and toluene at 10% (w/v).)” in data set [3] (setting [11]); “S^c (soluble in hexane, heptane, benzene, and toluene at 20% (w/v).)” in data set [3] (setting [12]); “S^f (insoluble in water at 0.01% (w/v).)” in data set [3] (water at 0.01% (w/v)). The “Onset of MIL volatilization (° C.)^1” value in data set [4] is 192 °C.
`CCCCCCCCOC(=O)c1ccc(C(=O)OCCCCCCCC)o1.CCCCCCCCOC(=O)c1ccc(C(=O)OCCCCCCCC)o1.CCCCCCCCOC(=O)c1ccc(C(=O)OCCCCCCCC)o1.CCCCCCCCOC(=O)c1ccc(C(=O)OCCCCCCCC)o1.CCCCCCCCOC(=O)c1ccc(C(=O)OCCCCCCCC)o1.CCCCCCCCOC(=O)c1ccc(C(=O)OCCCCCCCC)o1.O=C(C=C([O-])C(F)(F)F)C(F)(F)F.O=C(C=C([O-])C(F)(F)F)C(F)(F)F.O=C(C=C([O-])C(F)(F)F)C(F)(F)F.O=C(C=C([O-])C(F)(F)F)C(F)(F)F.O=C(C=C([O-])C(F)(F)F)C(F)(F)F.O=C(C=C([O-])C(F)(F)F)C(F)(F)F.[Ni+2].[Ni+2].[Ni+2]` [compound 11]: in data set [5], the “Viscosity (cP)” value is 453.5^b cP. Also, in data set [6], the “μeff, effective magnetic moment” value amounted to 5.51 μB. Besides, the Solubility entry was “S^b (soluble in acetone, chloroform, dichloromethane, acetonitrile, methanol, ethanol, diethyl ether, ethyl acetate, and isopropanol at 20% (w/v).)” in data set [7] (setting [10]); “S^a (soluble in hexane, heptane, benzene, and toluene at 10% (w/v).)” in [7] (setting [11]); “S^c (soluble in hexane, heptane, benzene, and toluene at 20% (w/v).)” in [7] (setting [12]); “S^d (soluble in acetone, chloroform, dichloromethane, methanol, ethanol, diethyl ether, ethyl acetate, isopropanol hexane, heptane, benzene, and toluene at 50% (w/v).)” in [7] (twelve organic solvents (without acetonitrile) at 50% (w/v)); “S^f (insoluble in water at 0.01% (w/v).)” in [7] (water at 0.01% (w/v)). Further, in data set [8], the “Onset of MIL volatilization (° C.)^1” value was 142 °C. For the same compound, the “Onset of MIL volatilization (° C.)^2” value in data set [9] stood at 160.6 °C.
For `CCCCCCCCCCCCCC[P+](CCCCCC)(CCCCCC)CCCCCC.CCCCCCCCCCCCCC[P+](CCCCCC)(CCCCCC)CCCCCC.CCCCCCCCCCCCCC[P+](CCCCCC)(CCCCCC)CCCCCC.[Cl-].[Cl-].[Cl-].[Cl-].[Cl-].[Cl-].[Gd+3]` [[P66614]3[GdCl6]], the Viscosity in data set [1] (reported at 20.0° C.) is recorded as 28,230^d. In addition, the Effective magnetic moment in [2] is listed as 7.86^f.
